Measurements as given in paper PMC11873037 (Nature Communications, 2025).

How the values were obtained:
ChREBPα = molecular target: T1, ChREBPα (Rattus norvegicus, UniProt Q8VIP2); test: immunostaining, nuclear localization of ChREBPα in INS-1 cells; type: cell-based
T1 sequence (Q8VIP2 1-865): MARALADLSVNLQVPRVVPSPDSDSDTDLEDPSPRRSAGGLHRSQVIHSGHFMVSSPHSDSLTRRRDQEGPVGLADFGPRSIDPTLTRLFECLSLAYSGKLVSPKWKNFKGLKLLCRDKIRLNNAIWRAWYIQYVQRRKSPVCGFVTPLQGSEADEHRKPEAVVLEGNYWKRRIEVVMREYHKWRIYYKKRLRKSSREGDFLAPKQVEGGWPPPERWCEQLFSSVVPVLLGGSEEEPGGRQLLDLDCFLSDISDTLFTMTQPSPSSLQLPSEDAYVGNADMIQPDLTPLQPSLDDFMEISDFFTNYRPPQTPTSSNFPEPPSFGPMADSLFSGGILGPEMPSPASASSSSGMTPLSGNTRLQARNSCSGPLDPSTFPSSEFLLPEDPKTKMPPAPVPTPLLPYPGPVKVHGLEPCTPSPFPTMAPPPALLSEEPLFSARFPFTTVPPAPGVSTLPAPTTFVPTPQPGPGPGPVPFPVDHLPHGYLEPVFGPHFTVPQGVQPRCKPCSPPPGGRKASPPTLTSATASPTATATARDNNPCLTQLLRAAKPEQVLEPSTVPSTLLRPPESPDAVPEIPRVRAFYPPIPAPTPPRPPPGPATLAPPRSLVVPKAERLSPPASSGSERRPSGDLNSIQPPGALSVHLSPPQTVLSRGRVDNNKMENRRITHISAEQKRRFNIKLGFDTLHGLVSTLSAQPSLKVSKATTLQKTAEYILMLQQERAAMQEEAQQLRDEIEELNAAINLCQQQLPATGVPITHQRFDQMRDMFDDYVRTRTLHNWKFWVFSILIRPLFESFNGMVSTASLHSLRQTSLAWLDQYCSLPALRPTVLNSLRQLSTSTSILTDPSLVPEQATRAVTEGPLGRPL

ChREBPα/14-3-3β [1] = molecular target: T2, ChREBPα/14-3-3β (Homo sapiens, UniProt P31946+Q9NP71); test: FA compound titration, stabilization of FITC-ChREBPα peptide/14-3-3β; type: binding; conditions: for EC50: EC50, FITC-ChREBPα peptide 10 nM, 14-3-3β 150 nM, mean ± SD, n = 2; for stabilization of the ChREBPα/14-3-3 PPI, in words: FA-based compound titrations
T2 sequence (P31946 1-246): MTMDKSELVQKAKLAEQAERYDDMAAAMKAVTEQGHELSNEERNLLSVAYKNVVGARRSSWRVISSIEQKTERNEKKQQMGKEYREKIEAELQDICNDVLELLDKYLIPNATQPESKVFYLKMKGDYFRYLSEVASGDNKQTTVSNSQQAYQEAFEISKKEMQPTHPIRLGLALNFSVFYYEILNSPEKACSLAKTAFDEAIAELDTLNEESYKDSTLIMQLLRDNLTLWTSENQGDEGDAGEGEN
T2 sequence (Q9NP71 117-142 limits assumed): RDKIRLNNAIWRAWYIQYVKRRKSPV

INS-1 cells [2] = test: cytotoxicity in low glucose; type: cell-based, rat
INS-1 cells [3] = test: cell death in glucolipotoxic conditions; type: cell-based, rat; conditions: for cell death in glucolipotoxic conditions, dose response: 5 and 10 μM, 20 mM glucose+500 µM palmitate, 48 h
[4] = test system: β-cell maturity markers or glucose sensing and processing genes; test: qPCR other β-cell maturity markers or glucose sensing and processing genes; type: cell-based, human; conditions: 10 µM 43, 24 h
ChREBPβ [5] = test: qPCR ChREBPβ mRNA in human islets; type: cell-based; conditions: 10 µM 43, 24 h; high glucose or glucolipotoxicity
human TXNIP promoter = test: luciferase reporter driven by the human TXNIP promoter in INS-1 cells; type: cell-based, rat; conditions: 10 µM 43, 24 h
ALDH1A3 = test: qPCR ALDH1A3 mRNA in human islets; type: cell-based
[6] = test system: dispersed human islet cells; test: β-cell death after adenoviral ChREBPβ overexpression or shRNA; type: cell-based; conditions: 10 μM 43
INS-1 cells [7] = test: kinetics of cell proliferation, total cell numbers; type: cell-based, rat; conditions: 10 μM 43
[8] = test system: TAZ, ExoS, ERα, CRAF, ChREBP peptides/14-3-3 isoforms (γ, ζ, σ); type: binding; conditions: 100 µM 43
INS-1 cells [9] = test: ATP/ADP measurements; type: cell-based, rat; conditions: 10 μM 43; high (20 mM) glucose
[10] = test system: BRAF, CRAF, p65, USP8, ERα, Pin1, ExoS peptides/14-3-3β; test: FA selectivity studies, statement over all other client peptides; type: binding; conditions: up to 100 µM
NFATC1/14-3-3 = test: proximity ligation assay NFATC1 and pan 14-3-3; type: cell-based, rat; conditions: 10 μM 43; high (20 mM) glucose
PDX1 [11] = test: qPCR PDX1 mRNA in human islets; type: cell-based; conditions: 10 µM 43, 24 h
ChREBPα/14-3-3 = test: proximity ligation assay ChREBPα and pan 14-3-3; type: cell-based, rat; conditions: high (20 mM) glucose
primary human islets [12] = test: total insulin content; type: cell-based
INS = test: qPCR INS mRNA in human islets; type: cell-based; conditions: 10 µM 43, 24 h
ChREBPα/14-3-3β [13] = molecular target: T2, ChREBPα/14-3-3β; test: biochemical
INS-1 cells [14] = test: calcium imaging; type: cell-based, rat
ChREBPβ [15] = test: immunostaining c-term ChREBP; type: cell-based, human; conditions: 48 h
human islets, β-cells = test: SPARKL assay, β-cell death in glucolipotoxicity; type: cell-based; conditions: 10 µM; 20 mM glucose+500 μM palmitate
ChREBP = molecular target: T3, ChREBP (Rattus norvegicus, UniProt Q8VIP2); test: CRISPR/Cas9 engineered INS-1 cells; type: cell-based; conditions: high glucose and glucolipotoxic conditions
T3 sequence (Q8VIP2 1-865): T1 sequence (Q8VIP2 1-865)

PDX1 [16] = test: immunostaining PDX1 protein in dispersed islets; type: cell-based, human; conditions: 48 h
primary human islets [17] = test: glucose-stimulated insulin secretion; type: cell-based; conditions: pre-treated 24 h, high glucose
primary human islets [18] = test: insulin secretion stimulation index in response to KCl; type: cell-based; conditions: 30 mM KCl
ChREBPα/14-3-3β [19] = molecular target: T2, ChREBPα/14-3-3β; conditions: fit of 2D titration with thermodynamic equilibrium model; compound 0–500 µM
[20] = test system: ChREBPα/all seven 14-3-3 isoforms; test: FA protein titrations, statement over all seven 14-3-3 isoforms; type: binding; conditions: 100 µM 43

NC(=O)c1ncn([C@@H]2O[C@H](CO)[C@@H](O)[C@H]2O)c1N [AICAR, reference compound]
nuclear translocation of ChREBPα (ChREBPα; 1 mM AICAR): translocation of ChREBPα is not blocked

O=C(COc1ccccc1P(=O)(O)O)NCCc1ccc(OCc2ccccn2)cc1 [compound 9]
EC50 (ChREBPα/14-3-3β [1]): 7.6 ± 0.5 µM
stabilization of the ChREBPα/14-3-3 PPI, in words (ChREBPα/14-3-3β [1]): increased the stabilization efficiency

O=C(COc1ccccc1P(=O)(O)O)NCCc1ccc(OCc2cccnc2)cc1 [compound 10]
stabilization of the ChREBPα/14-3-3 PPI, in words (ChREBPα/14-3-3β [1]): increased the stabilization efficiency

O=C(COc1ccccc1P(=O)(O)O)NCCc1ccc(OCc2ccncc2)cc1 [compound 11]
stabilization of the ChREBPα/14-3-3 PPI, in words (ChREBPα/14-3-3β [1]): increased the stabilization efficiency

O=C(NCCc1ccccc1)C(Oc1ccccc1P(=O)(O)O)c1ccccc1 (stereo not drawn) [compound 12]
Active in biochemical assays (ChREBPα/14-3-3β [1]): not active in the biochemical assay
Cytotoxic in low [glucose] (INS-1 cells [2]): neither generally cytotoxic
Rescue from glucolipotoxicity (INS-1 cells [3]): nor rescued the cells from glucolipotoxicity

O=C(COc1ccc(OP(=O)(O)O)cc1)NCCc1ccccc1 [compound 19]
EC50 (ChREBPα/14-3-3β [1]): 17.4 ± 3.2 µM

O=C(COc1ccccc1B(O)O)NCCc1ccccc1 [compound 23]
stabilization of the ChREBPα/14-3-3 PPI, in words (ChREBPα/14-3-3β [1]): inactive

NS(=O)(=O)c1ccccc1OCC(=O)NCCc1ccccc1 [compound 24]
stabilization of the ChREBPα/14-3-3 PPI, in words (ChREBPα/14-3-3β [1]): inactive

O=C(COc1ccccc1P(=O)(O)O)NCC(F)(F)c1cccc(F)c1 [compound 43]
other β-cell maturity markers or glucose sensing and processing genes [4]: unchanged
upregulation of ChREBPβ at mRNA level (ChREBPβ [5]): prevented upregulation of ChREBPβ
glucose response of the TXNIP gene (human TXNIP promoter): prevents the glucose response of the TXNIP gene
nuclear translocation of ChREBPα (ChREBPα; glucose + palmitate): preventing ChREBPα’s nuclear translocation
nuclear translocation of ChREBPα (ChREBPα; high glucose): blocked the transient translocation of ChREBPα
ALDH1A3 mRNA (ALDH1A3; high glucose or glucolipotoxicity): unaffected
ALDH1A3 mRNA (ALDH1A3; low glucose): significantly decreased
protection from apoptosis due to overexpression of ChREBPβ [6]: unable to protect human islet cells from apoptosis
glucose-stimulated proliferation (INS-1 cells [7]): prevented glucose-stimulated proliferation
Active in biochemical assays (ChREBPα/14-3-3β [1]): active in biochemical assays
ChREBPα stabilization selectivity among 14-3-3 isoforms [8]: preserved
ATP/ADP ratio (INS-1 cells [9]): enhanced mitochondrial activity
effect on other 14-3-3 client peptides (selectivity) [10]: without affecting any other client peptide
14-3-3 dissociation from NFATC1 (PLA) (NFATC1/14-3-3): glucose promoted 14-3-3 dissociation from NFATC1
PDX1 mRNA downregulation (de-differentiation) in glucolipotoxicity (PDX1 [11]): this de-differentiation was prevented
interaction between 14-3-3 and ChREBPα (PLA) (ChREBPα/14-3-3): remained unchanged
insulin content (primary human islets [12]): no effect
INS mRNA downregulation (de-differentiation) in glucolipotoxicity (INS): this de-differentiation was prevented
Kd (ChREBPα/14-3-3β [13]): 162 µM
calcium upregulation in response to glucose (INS-1 cells [14]): no effect
upregulation of ChREBPβ at protein level (ChREBPβ [15]): prevented upregulation of ChREBPβ
β-cell death in glucolipotoxic conditions, in words (human islets, β-cells): remarkable decrease in β-cell death
build up of nuclear ChREBPβ, in words (ChREBP): prevents the built up of nuclear ChREBPβ
PDX1 protein levels in glucolipotoxicity (PDX1 [16]): rescued
GSIS stimulation index, in words (primary human islets [17]): improved glucose-stimulated insulin secretion (GSIS) stimulation index (SI)
SI in response to KCl (primary human islets [18]): no effect
cooperativity factor (α) (ChREBPα/14-3-3β [19]): 72
Cytotoxic in low [glucose] (INS-1 cells [2]): no cytotoxicity
Rescue from glucolipotoxicity (INS-1 cells [3]): protected the β-cells from glucolipotoxicity
glucolipotoxic cell death in INS-1 cells (INS-1 cells [3]; 10 µM 43, kinetics over 72 h): prevented
cell death in glucolipotoxic conditions, dose response (INS-1 cells [3]): significant attenuation of cell death
PPI stabilization with 14-3-3 isoforms [20]: PPI stabilization among all isoforms

O=C(COc1ccccc1P(=O)(O)O)NCC(F)(F)c1ccc(F)c(F)c1 [compound 53]
Active in biochemical assays (ChREBPα/14-3-3β [1]): active in biochemical assays
effect on other 14-3-3 client peptides (selectivity) [10]: without affecting any other client peptide
Kd (ChREBPα/14-3-3β [13]): 110 µM
β-cell death in glucolipotoxic conditions, in words (human islets, β-cells): remarkable decrease in β-cell death
cooperativity factor (α) (ChREBPα/14-3-3β [19]): 126
Cytotoxic in low [glucose] (INS-1 cells [2]): no cytotoxicity
Rescue from glucolipotoxicity (INS-1 cells [3]): protected the β-cells from glucolipotoxicity
cell death in glucolipotoxic conditions, dose response (INS-1 cells [3]): significant attenuation of cell death
